According to patent US4503244A, “Sebosuppressive topical cosmetic preparations containing alkoxybenzoic acid esters, process for inhibiting sebum production and alkoxybenzoic acid esters” (Henkel Kommanditgesellschaft, priority 1983, dated 1985):

Key:
[1] = tested on: brown skin surface lipid of the rats; test: Antiseborrheic effect: browning of the shaved back of rats, visually assessed (half-back application, 14 days); format: in vivo, male Wistar rats; conditions: for Sebum reduction: (ΔP/Pk)·100
Source text: The antiseborrheic effect was closely studied using the animal tests described in the following:
The test animals were male Wistar rats having a body weight of 220 to 230 g at the beginning of the tests. The degree of browning on the shaved back of the rats was visually assessed. Browning is produced by the brown skin surface lipid of the rats. This test is based on the observation that young female rats and also male rats washed with a tenside solution or with a lipid solvent and also male rats systematically treated with estrogen only have the normal light, pink-colored skin after shaving. At the same time, only comparatively very small quantities of lipids can be extracted from the shaved hair.
In order to assess effectiveness, the test substances in solution in alcohol were each brushed onto half the back of 6 rats. The other half was only treated with the solvent minus active substances.
Over the test period of 14 days, the test substances were applied once daily for a total of 9 days. A group of 6 rats which remained completely untreated was used for further control. At the end of the test, the animals were shaved on their back and sides and were visually assessed independently by an examination panel of 6 people under double blind conditions.
The first criterion evaluated was whether the majority of examiners correctly recognized the treated side, differentiation being carried out as follows:
The second criterion evaluated was the difference between the righthand side and the lefthand side, each examiner having to award 1 point per animal on the following basis:
lighter side--0 point and
both sides the same--0.5 point
Significant differences between the untreated and treated sides in the second method of evaluation indicate the local effectiveness of a substance.
The third criterion evaluated was the difference in intensity between the shades of brown using the following scale:
In the third method or evaluation, the points total differences are worked out between the untreated control animals and the treated and untreated sides of the test animals, significant differences between the control animals and the treated side of the test animals again indicating the effectiveness of a substance.
At the same time, there is generally also a distinct difference between the untreated and treated sides of the groups of test animals. However, this difference is not always as clear as that between the control animals and the treated sides, for which there may be various reasons, including for example mechanical transfer of substance from one side to the other or solvent influence.
The following scheme was used for differentiating the effects according to evaluation methods 2 and 3:
Percentage sebum reduction
The sebum reduction is calculated from the points difference by working out the quotient between the points difference ΔP and the number of points for the control group Pk and expressing the value obtained in percent.
Sebum reduction=(ΔP/Pk)·100[%]

[2] = tested on: seborrhea / production of sebum; conditions: background art; cited from earlier work

SMILES	Evaluation method 1 (percentage of examiners noticing an effect) ([1]; Conc. 0.1% in alcohol)	Evaluation method 2 (points difference between treated and untreated side) ([1]; Conc. 0.1% in alcohol)	Evaluation method 3 (difference in intensity between shades of brown vs untreated control animals) ([1]; Conc. 0.1% in alcohol)	Sebum reduction ([1]; Conc. 0.1% in alcohol) [%]	Evaluation method 1 (percentage of examiners noticing an effect) ([1]; Conc. 1.0% in alcohol)	Evaluation method 2 (points difference between treated and untreated side) ([1]; Conc. 1.0% in alcohol)	Evaluation method 3 (difference in intensity between shades of brown vs untreated control animals) ([1]; Conc. 1.0% in alcohol)	Sebum reduction ([1]; Conc. 1.0% in alcohol) [%]	further results
CCCCCCCCCCOc1ccc(C(=O)OCCN(CC)CC)cc1 [E, p-decyloxybenzoic acid 2-diethylaminoethyl ester]	++ (100%)	++ (very large (≥99.9% probability))	++ (very large (≥99.9% probability))	80	++ (100%)	++ (very large (≥99.9% probability))	++ (very large (≥99.9% probability))	90	–
CCCCCCCCCCOc1ccc(C(=O)OCCO)cc1 [D, p-decyloxybenzoic acid 2-hydroxy-ethyl ester]	–	–	–	–	++ (100%)	++ (very large (≥99.9% probability))	++ (very large (≥99.9% probability))	98	–
CCCCCCCCCCOc1ccc(C(=O)OCC(=O)OC)cc1 [G, p-decyloxybenzoyloxy-acetic acid methyl ester]	–	–	–	–	–	–	–	–	Evaluation method 1 (percentage of examiners noticing an effect) ([1]; Conc. 0.5% in alcohol): ++ (100%); Evaluation method 2 (points difference between treated and untreated side) ([1]; Conc. 0.5% in alcohol): ++ (very large (≥99.9% probability)); Evaluation method 3 (difference in intensity between shades of brown vs untreated control animals) ([1]; Conc. 0.5% in alcohol): ++ (very large (≥99.9% probability)); Sebum reduction ([1]; Conc. 0.5% in alcohol): 82%
CCCCCCCCCCOc1ccc(C(=O)OCCOCC)cc1 [B, p-decyloxybenzoic acid 2-ethoxy-ethyl ester]	++ (100%)	++ (very large (≥99.9% probability))	++ (very large (≥99.9% probability))	30	++ (100%)	++ (very large (≥99.9% probability))	++ (very large (≥99.9% probability))	93	–
O=C(O)C=CC=Cc1ccccc1 [phenylpentadienoic acid]	–	–	–	–	–	–	–	–	sebosuppressive / antiseborrheic effect of known substances [2]: neither N,N-diethyl-m-toluamide nor phenylpentadienoic acid show, however, fully satisfactory sebosuppressive properties
CCCCCCCCCCCCOc1ccc(C(=O)OCCOC)cc1 [F, p-dodecyloxybenzoic acid 2-methoxy-ethyl ester]	–	–	–	–	++ (100%)	++ (very large (≥99.9% probability))	++ (very large (≥99.9% probability))	91	Evaluation method 1 (percentage of examiners noticing an effect) ([1]; Conc. 0.2% in alcohol): ++ (100%); Evaluation method 2 (points difference between treated and untreated side) ([1]; Conc. 0.2% in alcohol): ++ (very large (≥99.9% probability)); Evaluation method 3 (difference in intensity between shades of brown vs untreated control animals) ([1]; Conc. 0.2% in alcohol): ++ (very large (≥99.9% probability)); Sebum reduction ([1]; Conc. 0.2% in alcohol): 92%
CCCCCCCCCCOc1ccc(C(=O)OCCOC)cc1 [A, p-decyloxybenzoic acid 2-methoxy-ethyl ester]	++ (100%)	++ (very large (≥99.9% probability))	++ (very large (≥99.9% probability))	69	++ (100%)	++ (very large (≥99.9% probability))	++ (very large (≥99.9% probability))	100	–
CCCCCCCCCCOc1ccc(C(=O)OCCOCCOC)cc1 [C, p-decyloxybenzoic acid 2-(2-methoxyethoxy)-ethyl ester]	++ (100%)	++ (very large (≥99.9% probability))	++ (very large (≥99.9% probability))	26	++ (100%)	++ (very large (≥99.9% probability))	++ (very large (≥99.9% probability))	100	–
CCN(CC)C(=O)c1cccc(C)c1 [N,N-diethyl-m-toluamide]	–	–	–	–	–	–	–	–	sebosuppressive / antiseborrheic effect of known substances [2]: neither N,N-diethyl-m-toluamide nor phenylpentadienoic acid show, however, fully satisfactory sebosuppressive properties
